Assay results as given in ChEMBL document CHEMBL5385913, “First-in-Class Dual EZH2-HSP90 Inhibitor Eliciting Striking Antiglioblastoma Activity In Vitro and In Vivo” (J Med Chem, 2024).
Active and inactive are the calls of the source. No cut-off for these calls is given here.

How the values were obtained:
GBM [1] = assay: Effect on homologous recombination in TMZ-resistant patient-derived human GBM cells assessed as fold decrease in MND1 gene expression at 2 uM (reference value: 2.95); assay type: functional
GBM [2] = assay: Downregulation of cyclin B level in TMZ-resistant patient-derived human GBM cells upto 5 uM incubated for 48 to 72 hrs by Western blot analysis; assay type: functional, cell-based; conditions: time 48-72 hrs
GBM [3] = assay: Induction of ROS production in TMZ-resistant patient-derived human GBM cells measured after 48 hrs by DHR staining based flow cytometry; assay type: functional, cell-based
GBM [4] = assay: Induction of ROS production in TMZ-resistant patient-derived human GBM cells assessed as decrease in GPX1 level upto 10 uM measured after 48 hrs by Western blot analysis; assay type: functional, cell-based
GBM [5] = assay: Induction of ROS production in patient-derived human GBM cells measured after 48 hrs by DHR staining based flow cytometry; assay type: functional, cell-based
[6] = Downregulation of CENPU level in TMZ-resistant patient-derived human GBM cells assessed as fold change at 2 uM by GlioVis analysis (reference value: 3.88); assay type: functional
GBM [7] = assay: Upregulation of ACTB gene expression in TMZ-resistant patient-derived human GBM cells by KEGG analysis; assay type: functional, cell-based
GBM [8] = assay: Suppression of DNA repair in TMZ-resistant patient-derived human GBM cells by GSEA analysis; assay type: functional, cell-based
GBM [9] = assay: Upregulation of necrosis-related gene expression in TMZ-resistant patient-derived human GBM cells; assay type: functional, cell-based
[10] = Downregulation of CENPI level in TMZ-resistant patient-derived human GBM cells assessed as fold change at 2 uM by GlioVis analysis (reference value: 3.46); assay type: functional
[11] = biological target: Histone-lysine N-methyltransferase EZH2 (Homo sapiens) (UniProt Q15910); assay: Inhibition of EZH2 in patient-derived human GBM cells upto 10 uM measured after 48 hrs by Western blot analysis; assay type: cell-based
GBM [12] = assay: Upregulation of HSP90AA1 gene expression in TMZ-resistant patient-derived human GBM cells by KEGG analysis; assay type: functional, cell-based
GBM [13] = assay: Induction of mitochondrial ROS production in TMZ-resistant patient-derived human GBM cells by MitoSOX staining based analysis; assay type: functional, cell-based
[14] = Downregulation of CENPW level in TMZ-resistant patient-derived human GBM cells assessed as fold change at 2 uM by GlioVis analysis (reference value: 2.83); assay type: functional
GBM [15] = assay: Induction of cell cycle arrest in TMZ-resistant patient-derived human GBM cells at 1 uM incubated for 24 to 72 hrs by PI staining based flow cytometry; assay type: functional; conditions: time 24-72 hrs
[16] = Effect on processing DNA double-strand break in TMZ-resistant patient-derived human GBM cells assessed as fold decrease in BLM gene expression at 2 uM (reference value: 3.55); assay type: functional
GBM [17] = assay: Upregulation of apoptosis-related gene expression in TMZ-resistant patient-derived human GBM cells; assay type: functional, cell-based
GBM [18] = assay: Induction of ROS production in TMZ-resistant patient-derived human GBM cells assessed as increase in cleaved caspase-3 level upto 5 uM measured for 48 hrs by Western blot analysis; assay type: functional, cell-based
GBM [19] = assay: Downregulation of CENPF level in TMZ-resistant patient-derived human GBM cells upto 5 uM incubated for 48 to 72 hrs by Western blot analysis; assay type: functional, cell-based; conditions: time 48-72 hrs
GBM [20] = assay: Effect on homologous recombination in TMZ-resistant patient-derived human GBM cells assessed as fold decrease in BLM gene expression at 2 uM (reference value: 3.55); assay type: functional
GBM [21] = assay: Effect on homologous recombination in TMZ-resistant patient-derived human GBM cells assessed as fold decrease in FANCM gene expression at 2 uM (reference value: 2.59); assay type: functional
GBM [22] = assay: Downregulation of CENPI level in TMZ-resistant patient-derived human GBM cells upto 5 uM incubated for 48 to 72 hrs by Western blot analysis; assay type: functional, cell-based; conditions: time 48-72 hrs
GBM [23] = assay: Upregulation of CTNNB1 gene expression in TMZ-resistant patient-derived human GBM cells by KEGG analysis; assay type: functional, cell-based
GBM [24] = assay: Downregulation of spindle-related gene expression in TMZ-resistant patient-derived human GBM cells; assay type: functional, cell-based
GBM [25] = assay: Upregulation of HSPH gene expression in TMZ-resistant patient-derived human GBM cells by KEGG analysis; assay type: functional, cell-based
[26] = Effect on processing DNA double-strand break in TMZ-resistant patient-derived human GBM cells assessed as fold decrease in DNA2 gene expression at 2 uM (reference value: 2.75); assay type: functional
GBM [27] = assay: Upregulation of HSPA1A gene expression in TMZ-resistant patient-derived human GBM cells by KEGG analysis; assay type: functional, cell-based
GBM [28] = assay: Induction of ROS production in patient-derived human GBM cells assessed as decrease in SOD1 level upto 10 uM measured after 48 hrs by Western blot analysis; assay type: functional, cell-based
GBM [29] = assay: Inhibition of cell proliferation in TMZ-resistant patient-derived human GBM cells at 2 uM incubated for 48 hrs; assay type: functional, cell-based
GBM [30] = assay: Effect on homologous recombination in TMZ-resistant patient-derived human GBM cells assessed as fold decrease in RAD21 gene expression at 2 uM (reference value: 5.77); assay type: functional
GBM [31] = assay: Effect on homologous recombination in TMZ-resistant patient-derived human GBM cells assessed as fold decrease in HDAC10 gene expression at 2 uM (reference value: 0.53); assay type: functional
GBM [32] = assay: Induction of ROS production in TMZ-resistant patient-derived human GBM cells assessed as decrease in SOD1 level upto 10 uM measured after 48 hrs by Western blot analysis; assay type: functional, cell-based
[33] = Downregulation of CENPM level in TMZ-resistant patient-derived human GBM cells assessed as fold change at 2 uM by GlioVis analysis (reference value: 2.23); assay type: functional
GBM [34] = assay: Downregulation of RPL35 gene expression in TMZ-resistant patient-derived human GBM cells by KEGG analysis; assay type: functional, cell-based
[35] = Downregulation of HJURP level in TMZ-resistant patient-derived human GBM cells assessed as fold change at 2 uM by GlioVis analysis (reference value: 4.74); assay type: functional
GBM [36] = assay: Downregulation of PCBP1 gene expression in TMZ-resistant patient-derived human GBM cells by KEGG analysis; assay type: functional, cell-based
GBM [37] = assay: Downregulation of kinetochore-related gene expression in TMZ-resistant patient-derived human GBM cells; assay type: functional, cell-based
[38] = biological target: Histone-lysine N-methyltransferase EZH2 (Homo sapiens) (UniProt Q15910); assay: Inhibition of EZH2 in TMZ-resistant patient-derived human GBM cells upto 10 uM measured after 48 hrs by Western blot analysis; assay type: cell-based
GBM [39] = assay: Downregulation of RPS10 gene expression in TMZ-resistant patient-derived human GBM cells by KEGG analysis; assay type: functional, cell-based
[40] = Effect on processing DNA double-strand break in TMZ-resistant patient-derived human GBM cells assessed as fold decrease in RBBP8 gene expression at 2 uM (reference value: 4.92); assay type: functional
[41] = Downregulation of HELLS level in TMZ-resistant patient-derived human GBM cells assessed as fold change at 2 uM by GlioVis analysis (reference value: 4.19); assay type: functional
GBM [42] = assay: Effect on homologous recombination in TMZ-resistant patient-derived human GBM cells assessed as fold decrease in RAD54B gene expression at 2 uM (reference value: 1.74); assay type: functional

Chain of Histone-lysine N-methyltransferase EZH2 (Homo sapiens) (Q15910 whole entry, looked up): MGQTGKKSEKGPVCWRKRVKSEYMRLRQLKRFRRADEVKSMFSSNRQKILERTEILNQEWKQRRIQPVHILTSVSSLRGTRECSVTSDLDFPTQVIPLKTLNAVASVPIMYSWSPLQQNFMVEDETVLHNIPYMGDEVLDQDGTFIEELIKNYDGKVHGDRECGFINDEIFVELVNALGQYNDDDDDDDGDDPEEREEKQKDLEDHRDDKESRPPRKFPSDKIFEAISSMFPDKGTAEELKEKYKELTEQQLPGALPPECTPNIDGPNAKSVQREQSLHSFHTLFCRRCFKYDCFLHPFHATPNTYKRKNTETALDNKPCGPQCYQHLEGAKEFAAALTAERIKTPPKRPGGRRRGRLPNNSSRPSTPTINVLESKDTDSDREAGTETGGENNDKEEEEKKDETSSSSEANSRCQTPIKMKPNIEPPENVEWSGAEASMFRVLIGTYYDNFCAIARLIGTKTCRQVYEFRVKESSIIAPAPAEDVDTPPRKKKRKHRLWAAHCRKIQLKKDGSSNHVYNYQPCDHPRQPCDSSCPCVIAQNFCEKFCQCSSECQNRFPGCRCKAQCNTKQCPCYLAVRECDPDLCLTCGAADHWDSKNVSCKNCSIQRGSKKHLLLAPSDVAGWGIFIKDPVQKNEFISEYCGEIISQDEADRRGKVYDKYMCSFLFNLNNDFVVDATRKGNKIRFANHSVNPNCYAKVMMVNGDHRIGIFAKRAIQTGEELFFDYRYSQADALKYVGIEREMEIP

CCN(c1cc(-c2cccc(N(C)C(=O)c3cc(C(C)C)c(O)cc3O)c2)cc(C(=O)NCc2c(C)cc(C)[nH]c2=O)c1C)C1CCOCC1
fold change (FC) (GBM [1]): 0.36
Activity (GBM [2]): Active
Activity (GBM [3]): Active
Activity (GBM [4]): Active
Activity (GBM [5]): Active
fold change (FC) [6]: 1.46
Activity (GBM [7]): Active
Activity (GBM [8]): Active
Activity (GBM [9]): Active
fold change (FC) [10]: 1.14
inhibition [11]: Active
Activity (GBM [12]): Active
Activity (GBM [13]): Active
fold change (FC) [14]: 0.72
Activity (GBM [15]): Active
fold change (FC) [16]: 0.72
Activity (GBM [17]): Active
Activity (GBM [18]): Active
Activity (GBM [19]): Active
fold change (FC) (GBM [20]): 0.72
fold change (FC) (GBM [21]): 1.77
Activity (GBM [22]): Active
Activity (GBM [23]): Active
Activity (GBM [24]): Active
Activity (GBM [25]): Active
fold change (FC) [26]: 1.33
Activity (GBM [27]): Active
Activity (GBM [28]): Active
inhibition (GBM [29]): Active
fold change (FC) (GBM [30]): 4.69
fold change (FC) (GBM [31]): 0.17
Activity (GBM [32]): Active
fold change (FC) [33]: 0.48
Activity (GBM [34]): Active
fold change (FC) [35]: 1.38
Activity (GBM [36]): Active
Activity (GBM [37]): Active
inhibition [38]: Active
Activity (GBM [39]): Active
fold change (FC) [40]: 3.95
fold change (FC) [41]: 2.37
fold change (FC) (GBM [42]): 0.83
